These results are taken from patent US10213391B2, “Pharmaceutical compositions comprising hemp and turmeric to treat pain and inflammation” (priority 2014, dated 2019).

For test [1], the system named is pain. Description: 7 volunteer pain relief study. The class given is in vivo, human. Particulars: for Relief: single agent: Curcumin 30 mg or Hemp CBD 20 mg, formulations contain magnesium. From the text: All of the above formulations contain magnesium. Patients received the combination of CBD and curcumin in the following formulation comprising: (a) hemp derived terpiniods and oil; (b) turmeric as curcumin and; (c) magnesium.

For test [2], the system named is Chronic constriction injury (CCI) in mice. The note with it: p.o., twice per day for three weeks, cited from earlier work.
Setting [3] is: chronic, but not acute, treatment 5, 15 or 45 mg/kg.

Turning to `COc1cc(/C=C/C(=O)CC(=O)/C=C/c2ccc(O)c(OC)c2)ccc1O` [Curcumin, curcumin], the Relief result in test [1] (Subject 1, (California), joint pain) is given as “Partial relief”; in test [1] (Subject 2, (California), migraine), “Partial relief”; in test [1] (Subject 4, (Colorado), back pain), “Partial relief”; in test [1] (Subject 5, (California), back pain) it was “Partial relief”. In addition, the pain relief result in test [1] (summary of the 7 volunteer study, patients taking the agents singly) is on record as “partial pain relief”. Besides, the “spinal monoamine (or metabolite) contents” value in test [2] (chronic treatment 5, 15 or 45 mg/kg) was “increasing”. The “mechanical allodynia (von Frey hair)” value in test [2] (setting [3]) was “alleviated”. The “thermal hyperalgesia (hot plate test)” value in test [2] (setting [3]) is “alleviated”.
